{
  "source": "paper PMC3138873",
  "about": "(Biochemical pharmacology, 2011)",
  "key": {"VC1:IIC2 [1]": {"target": "T1, VC1:IIC2 (UniProt P26769+P30803)", "T1 sequence (P30803 398-765 limits assumed)": "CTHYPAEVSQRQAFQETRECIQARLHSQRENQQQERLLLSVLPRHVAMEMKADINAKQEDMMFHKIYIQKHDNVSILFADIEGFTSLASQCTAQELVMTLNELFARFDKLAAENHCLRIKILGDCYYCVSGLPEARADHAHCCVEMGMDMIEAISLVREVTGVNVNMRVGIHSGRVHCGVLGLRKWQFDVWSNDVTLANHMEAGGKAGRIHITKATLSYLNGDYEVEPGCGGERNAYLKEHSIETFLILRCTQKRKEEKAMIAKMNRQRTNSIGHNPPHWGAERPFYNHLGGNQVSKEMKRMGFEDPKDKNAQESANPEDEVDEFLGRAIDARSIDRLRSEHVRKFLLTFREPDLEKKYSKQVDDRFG", "T1 sequence (P26769 821-1090 limits assumed)": "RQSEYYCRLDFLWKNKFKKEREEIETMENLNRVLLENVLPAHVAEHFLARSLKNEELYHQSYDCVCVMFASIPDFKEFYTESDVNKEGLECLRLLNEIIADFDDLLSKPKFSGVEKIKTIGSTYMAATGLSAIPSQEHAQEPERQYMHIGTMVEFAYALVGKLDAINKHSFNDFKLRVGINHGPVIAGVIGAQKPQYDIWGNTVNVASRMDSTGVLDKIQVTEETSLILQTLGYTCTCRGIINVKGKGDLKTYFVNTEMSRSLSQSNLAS", "T1 sequence (P04896 whole entry partner)": "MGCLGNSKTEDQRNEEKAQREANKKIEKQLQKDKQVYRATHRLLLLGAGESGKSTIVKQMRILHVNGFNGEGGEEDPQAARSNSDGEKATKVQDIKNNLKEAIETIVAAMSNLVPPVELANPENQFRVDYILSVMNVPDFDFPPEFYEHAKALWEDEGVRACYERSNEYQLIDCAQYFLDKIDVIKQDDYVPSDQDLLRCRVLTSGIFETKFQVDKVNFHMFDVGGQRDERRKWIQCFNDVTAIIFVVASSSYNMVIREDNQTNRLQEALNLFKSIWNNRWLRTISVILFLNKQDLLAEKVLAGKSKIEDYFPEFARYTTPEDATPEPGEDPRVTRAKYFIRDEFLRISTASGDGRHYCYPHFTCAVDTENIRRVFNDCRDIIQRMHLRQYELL", "experiment": "Inhibition of the catalytic activity of purified VC1:IIC2", "format": "biochemical, mammalian"}, "AC1 [2]": {"target": "T2, AC1 (Bos taurus, UniProt P19754)", "T2 sequence (P19754 whole entry)": "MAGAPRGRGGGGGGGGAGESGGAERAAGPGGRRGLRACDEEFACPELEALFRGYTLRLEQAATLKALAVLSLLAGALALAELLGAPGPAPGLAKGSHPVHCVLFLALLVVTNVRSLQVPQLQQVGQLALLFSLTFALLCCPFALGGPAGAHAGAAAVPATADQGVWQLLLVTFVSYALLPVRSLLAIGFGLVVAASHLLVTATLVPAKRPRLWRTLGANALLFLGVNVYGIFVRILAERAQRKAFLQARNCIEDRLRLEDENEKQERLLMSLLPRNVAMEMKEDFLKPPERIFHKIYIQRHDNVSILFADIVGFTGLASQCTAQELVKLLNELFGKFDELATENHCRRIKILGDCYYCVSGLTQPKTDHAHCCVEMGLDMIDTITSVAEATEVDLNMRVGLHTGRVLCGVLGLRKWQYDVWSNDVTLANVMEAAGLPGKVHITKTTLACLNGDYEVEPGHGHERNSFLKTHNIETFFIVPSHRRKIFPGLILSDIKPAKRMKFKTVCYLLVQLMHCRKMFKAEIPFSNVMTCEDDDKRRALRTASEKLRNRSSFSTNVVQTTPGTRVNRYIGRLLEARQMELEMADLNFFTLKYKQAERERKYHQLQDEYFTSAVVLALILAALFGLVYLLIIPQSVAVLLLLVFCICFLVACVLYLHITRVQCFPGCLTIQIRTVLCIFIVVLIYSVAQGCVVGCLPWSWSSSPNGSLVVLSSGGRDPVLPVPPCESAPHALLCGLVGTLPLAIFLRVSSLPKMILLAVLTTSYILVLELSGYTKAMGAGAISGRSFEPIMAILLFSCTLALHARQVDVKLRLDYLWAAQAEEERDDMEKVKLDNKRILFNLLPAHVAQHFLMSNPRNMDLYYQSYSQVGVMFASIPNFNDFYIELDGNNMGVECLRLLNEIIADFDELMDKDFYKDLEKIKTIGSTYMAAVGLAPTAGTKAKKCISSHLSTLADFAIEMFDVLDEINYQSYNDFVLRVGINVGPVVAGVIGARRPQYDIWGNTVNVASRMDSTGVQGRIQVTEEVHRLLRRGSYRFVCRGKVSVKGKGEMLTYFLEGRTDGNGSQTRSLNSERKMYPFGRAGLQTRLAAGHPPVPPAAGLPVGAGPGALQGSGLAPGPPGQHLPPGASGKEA", "experiment": "AC activity assay in Sf9 membranes expressing recombinant AC1", "format": "biochemical, mammalian"}, "AC2 [3]": {"target": "T3, AC2 (Rattus norvegicus, UniProt P26769)", "T3 sequence (P26769 whole entry)": "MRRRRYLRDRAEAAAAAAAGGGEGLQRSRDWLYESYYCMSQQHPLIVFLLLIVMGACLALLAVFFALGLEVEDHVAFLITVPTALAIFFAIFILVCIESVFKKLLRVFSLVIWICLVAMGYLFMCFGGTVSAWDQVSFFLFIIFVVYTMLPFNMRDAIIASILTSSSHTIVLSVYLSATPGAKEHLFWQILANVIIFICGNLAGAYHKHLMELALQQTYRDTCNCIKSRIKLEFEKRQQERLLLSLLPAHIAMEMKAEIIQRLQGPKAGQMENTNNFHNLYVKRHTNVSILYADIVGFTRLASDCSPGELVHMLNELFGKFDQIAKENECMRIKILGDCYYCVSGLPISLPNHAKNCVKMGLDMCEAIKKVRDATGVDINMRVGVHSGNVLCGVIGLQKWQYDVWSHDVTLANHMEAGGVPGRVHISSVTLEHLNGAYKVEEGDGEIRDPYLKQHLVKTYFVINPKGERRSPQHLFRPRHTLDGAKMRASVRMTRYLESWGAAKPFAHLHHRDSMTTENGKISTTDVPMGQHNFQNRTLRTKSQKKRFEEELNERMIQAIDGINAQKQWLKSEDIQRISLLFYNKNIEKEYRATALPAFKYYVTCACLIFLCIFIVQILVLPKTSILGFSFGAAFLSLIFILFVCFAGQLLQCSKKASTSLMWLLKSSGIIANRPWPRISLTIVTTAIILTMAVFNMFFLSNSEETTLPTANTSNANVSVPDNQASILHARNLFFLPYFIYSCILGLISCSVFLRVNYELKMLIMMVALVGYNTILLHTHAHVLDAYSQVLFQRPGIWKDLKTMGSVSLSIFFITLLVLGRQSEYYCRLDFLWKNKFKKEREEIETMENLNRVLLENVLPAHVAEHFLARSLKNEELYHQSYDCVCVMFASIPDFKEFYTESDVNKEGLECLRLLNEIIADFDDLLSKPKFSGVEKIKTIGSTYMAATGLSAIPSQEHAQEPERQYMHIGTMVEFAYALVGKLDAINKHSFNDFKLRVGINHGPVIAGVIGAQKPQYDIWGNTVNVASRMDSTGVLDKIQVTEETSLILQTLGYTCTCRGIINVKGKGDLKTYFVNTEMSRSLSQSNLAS", "experiment": "AC activity assay in Sf9 membranes expressing recombinant AC2", "format": "biochemical, mammalian"}, "AC5 [4]": {"target": "T4, AC5 (Canis lupus familiaris, UniProt P30803)", "T4 sequence (P30803 whole entry)": "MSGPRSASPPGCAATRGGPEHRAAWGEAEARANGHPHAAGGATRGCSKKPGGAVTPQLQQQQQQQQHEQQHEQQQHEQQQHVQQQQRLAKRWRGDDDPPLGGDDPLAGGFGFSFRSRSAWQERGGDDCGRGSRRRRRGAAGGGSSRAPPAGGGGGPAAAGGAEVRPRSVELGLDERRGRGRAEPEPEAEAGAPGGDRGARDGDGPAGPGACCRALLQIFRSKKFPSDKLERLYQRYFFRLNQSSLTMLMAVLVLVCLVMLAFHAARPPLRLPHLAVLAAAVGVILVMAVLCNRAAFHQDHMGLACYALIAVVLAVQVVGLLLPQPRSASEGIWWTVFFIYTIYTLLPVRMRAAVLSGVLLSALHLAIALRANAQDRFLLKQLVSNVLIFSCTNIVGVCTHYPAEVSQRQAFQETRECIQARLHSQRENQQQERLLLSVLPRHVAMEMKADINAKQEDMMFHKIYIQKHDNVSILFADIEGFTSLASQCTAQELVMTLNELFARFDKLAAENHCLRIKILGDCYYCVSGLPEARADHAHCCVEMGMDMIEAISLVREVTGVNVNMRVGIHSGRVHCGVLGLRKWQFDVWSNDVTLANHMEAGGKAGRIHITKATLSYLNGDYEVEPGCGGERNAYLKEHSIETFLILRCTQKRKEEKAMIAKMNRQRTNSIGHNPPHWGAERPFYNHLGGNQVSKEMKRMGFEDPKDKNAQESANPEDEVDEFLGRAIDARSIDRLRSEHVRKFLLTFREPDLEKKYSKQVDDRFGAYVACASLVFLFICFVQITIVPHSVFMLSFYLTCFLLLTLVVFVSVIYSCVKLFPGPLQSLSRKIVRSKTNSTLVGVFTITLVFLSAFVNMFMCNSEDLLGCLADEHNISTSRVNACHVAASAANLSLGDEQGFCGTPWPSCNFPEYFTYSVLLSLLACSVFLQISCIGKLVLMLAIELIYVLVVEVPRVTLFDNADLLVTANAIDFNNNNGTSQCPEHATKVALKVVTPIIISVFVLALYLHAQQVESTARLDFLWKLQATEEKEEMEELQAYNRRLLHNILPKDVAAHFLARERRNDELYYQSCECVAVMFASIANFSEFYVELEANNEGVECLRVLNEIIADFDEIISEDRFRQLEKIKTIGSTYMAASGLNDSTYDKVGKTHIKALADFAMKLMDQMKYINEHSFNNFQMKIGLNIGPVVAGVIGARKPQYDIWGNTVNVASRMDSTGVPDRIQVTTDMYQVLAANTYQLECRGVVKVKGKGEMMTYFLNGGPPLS", "experiment": "AC activity assay in Sf9 membranes expressing recombinant AC5", "format": "biochemical, mammalian", "details": "for Potency difference AC5 versus AC2: comparison of Ki at AC5 versus AC2"}, "VC1:IIC2 [5]": {"target": "T1, VC1:IIC2", "details": "cited from earlier work"}, "AC1 [6]": {"target": "T2, AC1", "details": "read-out: AC1 Ki; Sf9 membranes, 5 mM MnCl2, 100 μM FS; mean ± SD; cited from earlier work"}, "AC2 [7]": {"target": "T3, AC2", "details": "read-out: AC2 Ki; Sf9 membranes, 5 mM MnCl2, 100 μM FS; mean ± SD; cited from earlier work"}, "AC5 [8]": {"target": "T4, AC5", "details": "read-out: AC5 Ki; Sf9 membranes, 5 mM MnCl2, 100 μM FS; mean ± SD; cited from earlier work"}, "ACs 1, 2 and 5": {"target": "ACs 1, 2 and 5", "details": "read-out: Ki for ACs 1, 2 and 5; TNP-nucleotides; cited from earlier work"}, "[9]": {"details": "VC1:IIC2 Mn2+ + FS + Gsα-GTPγS Ki, maximally stimulated: 10 mM MnCl2, 100 μM FS, 100 μM ATP, mean ± SD"}, "[10]": {"details": "read-out: AC1 Ki, Sf9 membranes, 5 mM MnCl2, 100 μM FS, mean ± SD"}, "[11]": {"details": "read-out: AC2 Ki, Sf9 membranes, 5 mM MnCl2, 100 μM FS, mean ± SD"}, "[12]": {"details": "read-out: AC5 Ki, Sf9 membranes, 5 mM MnCl2, 100 μM FS, mean ± SD"}, "[13]": {"details": "read-out: VC1:IIC2 Mn2+ + FS + Gsα-GTPγS Ki, maximally stimulated: 10 mM MnCl2, 100 μM FS, Gsα-GTPγS, mean ± SD"}, "[14]": {"details": "read-out: VC1:IIC2 Mn2+ + FS + Gsα-GTPγS Ki, maximally stimulated: 10 mM MnCl2, 100 μM FS, 100 μM ATP, mean ± SD"}, "[15]": {"details": "read-out: Ki for VC1:IIC2, TNP-nucleotides"}},
  "note": "Read-outs that look alike come from different tables or passages of the source.",
  "data": [
    {"compound": "CNc1ccccc1C(=O)O[C@H]1C[C@H](n2cnc3c(N)ncnc32)O[C@@H]1COP(=O)(O)OP(=O)(O)OP(=O)(O)O", "note": "[compound 6, 2’-deoxy-3’-O-(N-methylanthraniloyl)-adenosine 5’-triphosphate]", "values": [
      {"measurement": "Ki", "setting": "VC1:IIC2 [1]; [9]", "result": "190 ± 3.4", "unit": "nM"},
      {"measurement": "Ki", "setting": "AC1 [2]", "result": "320 ± 19", "unit": "nM"},
      {"measurement": "Ki", "setting": "AC2 [3]", "result": 4800, "unit": "nM"},
      {"measurement": "Ki", "setting": "AC5 [4]", "result": "360 ± 54", "unit": "nM"},
      {"measurement": "Potency difference AC5 versus AC2", "setting": "AC5 [4]", "result": "> 10", "unit": "fold"}
    ]},
    {"compound": "CNc1ccccc1C(=O)O[C@H]1C[C@H](n2cnc3c(=O)[nH]c(N)nc32)O[C@@H]1COP(=O)(O)OP(=O)(O)OP(=O)(O)O", "note": "[compound 2, 2’-deoxy-3’-O-(N-methylanthraniloyl)-guanosine 5’-triphosphate]", "values": [
      {"measurement": "Ki", "setting": "AC1 [2]", "result": "270 ± 30", "unit": "nM"},
      {"measurement": "Ki", "setting": "AC2 [3]", "result": "1300 ± 210", "unit": "nM"},
      {"measurement": "Ki", "setting": "AC5 [4]", "result": "410 ± 35", "unit": "nM"}
    ]},
    {"compound": "2’,3’-O-(N-methylanthraniloyl)-guanosine 5’-triphosphate [compound 1]", "values": [
      {"measurement": "Ki", "setting": "AC1 [2]; [10]", "result": "90 ± 18", "unit": "nM"},
      {"measurement": "Ki", "setting": "AC2 [3]; [11]", "result": "610 ± 70", "unit": "nM"},
      {"measurement": "Potency difference AC5 versus AC2", "setting": "AC5 [4]", "result": "> 10", "unit": "fold"},
      {"measurement": "Ki", "setting": "AC5 [4]; [12]", "result": "53 ± 12", "unit": "nM"},
      {"measurement": "Ki", "setting": "VC1:IIC2 [5]; [13]", "result": "18 ± 6", "unit": "nM"}
    ]},
    {"compound": "2’,3’-O-(N-methylanthraniloyl)-xanthosine 5’-triphosphate [compound 10]", "values": [
      {"measurement": "Ki", "setting": "AC1 [2]; [10]", "result": 1100, "unit": "nM"},
      {"measurement": "Ki", "setting": "AC2 [3]; [11]", "result": 3000, "unit": "nM"},
      {"measurement": "Ki", "setting": "AC5 [4]; [12]", "result": 1300, "unit": "nM"},
      {"measurement": "Ki", "setting": "VC1:IIC2 [5]; [13]", "result": 1200, "unit": "nM"}
    ]},
    {"compound": "2’(3’)-O-(N-methylanthraniloyl)-cytidine 5’-triphosphate [compound 12]", "values": [
      {"measurement": "Ki", "setting": "VC1:IIC2 [1]; [14]", "result": "9.2 ± 1.5", "unit": "nM"},
      {"measurement": "Ki", "setting": "AC1 [6]", "result": "150 ± 30", "unit": "nM"},
      {"measurement": "Ki", "setting": "AC2 [7]", "result": "690 ± 20", "unit": "nM"},
      {"measurement": "Ki", "setting": "AC5 [8]", "result": "150 ± 30", "unit": "nM"}
    ]},
    {"compound": "2’,3’-O-(2,4,6-trinitrophenyl)-CTP [reference compound]", "values": [
      {"measurement": "Ki", "setting": "VC1:IIC2 [5]; [15]", "result": "100 to 300", "unit": "nM"},
      {"measurement": "Ki", "setting": "ACs 1, 2 and 5", "result": "10 to 100", "unit": "nM"}
    ]},
    {"compound": "2’,3’-O-anthraniloyl-guanosine 5’-triphosphate [compound 13]", "values": [
      {"measurement": "Ki", "setting": "VC1:IIC2 [1]; [14]", "result": "10 ± 1.7", "unit": "nM"}
    ]},
    {"compound": "CNc1ccccc1C(=O)O[C@@H]1C[C@@H](COP(=O)(O)OP(=O)(O)OP(=O)(O)O)O[C@H]1n1cnc2c(N)ncnc21", "note": "[compound 7, 3’-deoxy-2’-O-(N-methylanthraniloyl)-adenosine 5’-triphosphate]", "values": [
      {"measurement": "Ki", "setting": "VC1:IIC2 [1]; [9]", "result": "90 ± 2.2", "unit": "nM"},
      {"measurement": "Ki", "setting": "AC1 [2]", "result": "470 ± 20", "unit": "nM"},
      {"measurement": "Ki", "setting": "AC2 [3]", "result": "540 ± 20", "unit": "nM"},
      {"measurement": "Ki", "setting": "AC5 [4]", "result": "65 ± 5", "unit": "nM"}
    ]},
    {"compound": "2’,3’-O-(2,4,6-trinitrophenyl)-UTP [reference compound]", "values": [
      {"measurement": "Ki", "setting": "VC1:IIC2 [5]; [15]", "result": "100 to 300", "unit": "nM"},
      {"measurement": "Ki", "setting": "ACs 1, 2 and 5", "result": "10 to 100", "unit": "nM"}
    ]},
    {"compound": "2’,3’-O-anthraniloyl-adenosine 5’-triphosphate [compound 14]", "values": [
      {"measurement": "Ki", "setting": "AC1 [2]; [10]", "result": "130 ± 20", "unit": "nM"},
      {"measurement": "Ki", "setting": "AC2 [3]; [11]", "result": "640 ± 70", "unit": "nM"}
    ]},
    {"compound": "2’,3’-O-(N-methylanthraniloyl)-adenosine 5’-triphosphate [compound 5]", "values": [
      {"measurement": "Ki", "setting": "AC1 [6]", "result": "150 ± 40", "unit": "nM"}
    ]},
    {"compound": "2’,3’-O-(N-methylanthraniloyl)-guanosine 5’-[γ-thio]triphosphate [compound 4]", "values": [
      {"measurement": "Ki", "setting": "VC1:IIC2 [1]; [14]", "result": "24 ± 4.1", "unit": "nM"},
      {"measurement": "Ki", "setting": "AC1 [2]; [10]", "result": "63 ± 17", "unit": "nM"},
      {"measurement": "Ki", "setting": "AC2 [3]; [11]", "result": "370 ± 81", "unit": "nM"},
      {"measurement": "Ki", "setting": "AC5 [4]; [12]", "result": "34 ± 8", "unit": "nM"}
    ]},
    {"compound": "CNc1ccccc1C(=O)O[C@@H]1C[C@@H](COP(=O)(O)OP(=O)(O)OP(=O)(O)O)O[C@H]1n1cnc2c(=O)[nH]c(N)nc21", "note": "[compound 3, 3’-deoxy-2’-O-(N-methylanthraniloyl)-guanosine 5’-triphosphate]", "values": [
      {"measurement": "Ki", "setting": "VC1:IIC2 [1]; [9]", "result": "350 ± 43", "unit": "nM"},
      {"measurement": "Ki", "setting": "AC1 [2]", "result": 1800, "unit": "nM"},
      {"measurement": "Ki", "setting": "AC2 [3]", "result": 8700, "unit": "nM"},
      {"measurement": "Ki", "setting": "AC5 [4]", "result": 1800, "unit": "nM"}
    ]},
    {"compound": "2’,3’-O-(N-methylanthraniloyl)-uridine 5’-triphosphate [compound 11]", "values": [
      {"measurement": "Ki", "setting": "VC1:IIC2 [1]; [14]", "result": "6.1 ± 1.3", "unit": "nM"},
      {"measurement": "Ki", "setting": "AC1 [2]; [10]", "result": "46 ± 4", "unit": "nM"},
      {"measurement": "Ki", "setting": "AC2 [3]; [11]", "result": "460 ± 60", "unit": "nM"},
      {"measurement": "Potency difference AC5 versus AC2", "setting": "AC5 [4]", "result": "> 10", "unit": "fold"},
      {"measurement": "Ki", "setting": "AC5 [4]; [12]", "result": "32 ± 2", "unit": "nM"}
    ]},
    {"compound": "2’,3’-O-anthraniloyl-adenosine 5’-diphosphate [compound 15]", "values": [
      {"measurement": "Ki", "setting": "AC1 [2]; [10]", "result": "860 ± 10", "unit": "nM"},
      {"measurement": "Ki", "setting": "AC2 [3]; [11]", "result": 2900, "unit": "nM"}
    ]}
  ]
}
